Eight compounds from ChEMBL document CHEMBL1201862, “PubChem BioAssay data set” (2004) can be followed below.

For orientation: GI50 means the concentration that inhibits growth by half.

Among the test systems are NCI-H460; HCT-15; SW-620; OVCAR-8; MOLT-4; SNB-75; EKVX; UACC-62; Malme-3M; NCI-H23; A549; KM12; SNB-19; SK-MEL-28; U-251; OVCAR-5; A498; IGROV-1; RPMI-8226; HOP-92.
Test in all cases: DTP human tumour cell line panel, 48 h

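Five compound concentrations were applied to cells in 96-well plates for 48 hours; endpoints were derived by simple linear interpolation of the resulting dose-response curve. GI50 is the concentration that inhibits growth by half.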 The source made the active and inactive calls. Cut-off read from the data, not from the text of the source: active = GI50 up to about 1.1 µM and inactive = higher.

Turning to `COc1cccc2[s+]snc12`, the GI50 was 68.4 µM (inactive) in the assay with NCI-H460; 42.4 µM in the assay on HCT-15; 29.4 µM (inactive) in the assay on SW-620; 26.9 µM (inactive) in the assay with OVCAR-8; 29.7 µM (inactive) in the assay with MOLT-4; 69.3 µM (inactive) in the assay on SNB-75. The GI50 in the assay on EKVX is > 100 µM (inactive); in the assay on UACC-62, 25.1 µM (inactive); with Malme-3M, > 100 µM (inactive); in the assay with NCI-H23, 57.7 µM (inactive); in the assay on A549, 77.6 µM (inactive); in the assay on KM12 it was 59.6 µM (inactive). For the same compound, the GI50 in the assay on SNB-19 is 50.6 µM (inactive); in the assay on SK-MEL-28, > 100 µM (inactive); in the assay with U-251, > 10 µM (inactive); with OVCAR-5, > 100 µM (inactive); with A498 it was 95.7 µM (inactive); in the assay on IGROV-1 it was > 100 µM (inactive).

On to `CC(C)N1CSC(=S)N(Cc2ccccc2)C1`, for which the GI50 was > 10 µM (inactive) in the assay with NCI-H460; 3.4 µM with HCT-15; 3.18 µM (inactive) in the assay with SW-620; 4.75 µM (inactive) in the assay with OVCAR-8; 2.63 µM (inactive) with MOLT-4; 2.8 µM (inactive) in the assay on SNB-75. The GI50 is > 10 µM (inactive) in the assay on EKVX; 4.06 µM (inactive) in the assay with UACC-62; 3.1 µM (inactive) in the assay with NCI-H23; > 10 µM (inactive) in the assay with A549; 3.36 µM (inactive) with KM12; 0.752 µM (active) in the assay on SNB-19. Further, the GI50 in the assay on SK-MEL-28 was 3.78 µM (inactive); in the assay on U-251, > 10 µM (inactive); in the assay with A498, > 10 µM (inactive); in the assay on RPMI-8226, 2.58 µM (inactive); in the assay with HOP-92, 2.84 µM (inactive); with IGROV-1, > 10 µM (inactive).

Take `CC1(c2sccc2Cl)CC(c2sccc2Cl)=C(C#N)C(=C(C#N)C#N)N1` (stereo unspecified): the GI50 was 19 µM (inactive) in the assay on NCI-H460; 17.9 µM with HCT-15; 18.8 µM (inactive) in the assay with SW-620; 20.8 µM (inactive) in the assay with OVCAR-8; 38.7 µM (inactive) with MOLT-4; 18.7 µM (inactive) in the assay with EKVX. Further, the GI50 is 18.3 µM (inactive) in the assay on UACC-62; 17.6 µM (inactive) in the assay on Malme-3M; 17.9 µM (inactive) with NCI-H23; 24.7 µM (inactive) in the assay with A549; 20.9 µM (inactive) in the assay with KM12; 18.3 µM (inactive) in the assay on SNB-19. For the same compound, the GI50 with SK-MEL-28 was 18.2 µM (inactive); in the assay with U-251, 18.5 µM (inactive); in the assay on OVCAR-5, 22.3 µM (inactive); with A498, 18 µM (inactive); with RPMI-8226, 36.1 µM (inactive); in the assay with IGROV-1 it was 23 µM (inactive).

In the case of `Nc1nc2cc(COc3ccc(C(=O)O)cc3)ccc2nc1-c1ccccc1`, the GI50 in the assay on NCI-H460 is > 10 µM (inactive); in the assay with HCT-15, over 10 µM; in the assay on SW-620, > 10 µM (inactive); in the assay on MOLT-4, > 10 µM (inactive); in the assay on SNB-75, > 10 µM (inactive); with EKVX, > 10 µM (inactive). The GI50 in the assay with UACC-62, in the assay with NCI-H23, with A549, in the assay with KM12, with SNB-19 and in the assay on SK-MEL-28 was > 10 µM (inactive) throughout. Moreover, the GI50 in the assay with U-251, in the assay on OVCAR-5, in the assay on RPMI-8226, in the assay with HOP-92 and in the assay on IGROV-1 was > 10 µM (inactive) in each case.

Regarding `S=CN1CCCCC1`, the GI50 with NCI-H460 was > 100 µM (inactive); in the assay on HCT-15, over 100 µM; in the assay on SW-620, > 100 µM (inactive); in the assay on OVCAR-8 it was > 100 µM (inactive); with MOLT-4, > 100 µM (inactive); in the assay with SNB-75, > 100 µM (inactive). The GI50 with EKVX, with UACC-62, in the assay on Malme-3M, with NCI-H23, with A549 and in the assay on KM12 was > 100 µM (inactive) each time. The GI50 in the assay on SNB-19, in the assay with SK-MEL-28, in the assay with U-251, in the assay on OVCAR-5, in the assay on A498 and with RPMI-8226 was > 100 µM (inactive) in each case. Besides, the GI50 in the assay on IGROV-1 is > 100 µM (inactive).

On to `O=C(NN1C(=O)C(Cl)C1c1ccc([N+](=O)[O-])cc1)c1ccccc1O` (stereo unspecified), for which the GI50 in the assay on NCI-H460 is > 100 µM (inactive); in the assay with SW-620 it was > 100 µM (inactive); in the assay with OVCAR-8, > 100 µM (inactive); in the assay on MOLT-4, > 100 µM (inactive); in the assay on SNB-75, 51.8 µM (inactive); in the assay on EKVX, > 100 µM (inactive). Besides, the GI50 in the assay with UACC-62 was > 100 µM (inactive); in the assay with Malme-3M, 43 µM (inactive); in the assay on NCI-H23, > 100 µM (inactive); in the assay on A549, > 100 µM (inactive); with KM12 it was > 100 µM (inactive); in the assay with SNB-19, 68.1 µM (inactive). The GI50 with SK-MEL-28, in the assay on U-251, in the assay with OVCAR-5, in the assay on RPMI-8226, in the assay with HOP-92 and in the assay on IGROV-1 was > 100 µM (inactive) each time.

As to `CC(=O)NNc1nc(C)c(C(=O)NNC(=O)C(=O)Nc2ccc([N+](=O)[O-])cc2[N+](=O)[O-])s1`, the GI50 with NCI-H460 was > 100 µM (inactive); with HCT-15, over 100 µM; in the assay with SW-620, > 100 µM (inactive); in the assay with OVCAR-8, > 100 µM (inactive); in the assay on MOLT-4, 37.1 µM (inactive); in the assay with SNB-75, 47.5 µM (inactive). Further, the GI50 is 35.6 µM (inactive) in the assay with EKVX; > 100 µM (inactive) with UACC-62; > 100 µM (inactive) in the assay with NCI-H23; 68.9 µM (inactive) in the assay with A549; > 100 µM (inactive) in the assay with KM12; > 100 µM (inactive) in the assay on SNB-19. Further, the GI50 in the assay with SK-MEL-28 was > 100 µM (inactive); in the assay on U-251, 68.7 µM (inactive); in the assay with OVCAR-5, > 100 µM (inactive); with A498 it was > 100 µM (inactive); in the assay on RPMI-8226, 99.8 µM (inactive); in the assay with HOP-92, 79.3 µM (inactive). Also, in the assay with IGROV-1, the GI50 is > 100 µM (inactive).

In the case of `CSc1nc(SC)c2cnn(CC3CO3)c2n1` (stereo unspecified), the GI50 in the assay on NCI-H460 is 21 µM (inactive); with HCT-15 it was 25.2 µM; in the assay on SW-620 it was 11.6 µM (inactive); in the assay on OVCAR-8, 9.18 µM (inactive); with MOLT-4 it was 2.17 µM (inactive); with SNB-75, 17.3 µM (inactive). Besides, the GI50 is 29.3 µM (inactive) with EKVX; 19.2 µM (inactive) in the assay on UACC-62; 23.5 µM (inactive) with Malme-3M; 18.6 µM (inactive) in the assay with NCI-H23; 25.4 µM (inactive) in the assay on A549; 20.3 µM (inactive) in the assay with KM12. Moreover, the GI50 in the assay on SNB-19 was 31.2 µM (inactive); in the assay on SK-MEL-28 it was 13.9 µM (inactive); in the assay on U-251, 19.1 µM (inactive); with OVCAR-5, 17 µM (inactive); in the assay on A498 it was 62.7 µM (inactive); in the assay with RPMI-8226, 35.1 µM (inactive). Further, the GI50 in the assay on IGROV-1 is 19.4 µM (inactive).
